# Measured values as given in patent publication US20060110803A1 (Crucell Holland B.V., priority 2003, published 2006).
# What was measured:
# [1] = system: antibodies in rabbit serum obtained by immunizing a rabbit with the SARS-CoV strain Frankfurt 1; assay type: binding
# [2] = system: antibodies in sera of individuals which have been and/or are infected by SARS-CoV (SARS-green, SARS-yellow, 1a, 1b, 2, 6, 37, 62, London); assay type: binding, human
# [3] = system: antibodies in control sera (pooled serum of 10 healthy LUMC hospital workers; commercial negative donor pooled serum); assay type: binding, human
Sequence,recognition by rabbit serum [1],other results
CTTFDDVQAPNYTQH [SEQ ID NO:58],recognized by the rabbit serum,
DFTDSVRDPKTSEIL [SEQ ID NO:585],recognized by the rabbit serum,
DSVRDPKTSEILDIS [SEQ ID NO:588],recognized by the rabbit serum,
KYDENGTITDAVDCS [SEQ ID NO:293],recognized by the rabbit serum,
GYHLMSFPQAAPHGVVFLHVTYVPSQERNFTTAPAICHEGKAYFPREG [SEQ ID NO:1247],,recognition by sera of SARS-CoV infected individuals (domains homologous with OC43 spike) [2]: recognition by sera derived from individuals which have been and/or are still infected by SARS-CoV; recognition by control sera (domains homologous with OC43 spike) [3]: recognition by control sera derived from individuals which have not been infected by SARS-CoV
DVQAPNYTQHTSSMR [SEQ ID NO:63],recognized by the rabbit serum,
CDNPFFAVSKPMGTQ [SEQ ID NO:172],recognized by the rabbit serum,
LGKLQDVVNQNAQAL [SEQ ID NO:955],recognized by the rabbit serum,"recognition by sera of SARS-CoV infected individuals, looped/cyclic form [2]: recognized in looped/cyclic form"
TTFMLKYDENGTITD [SEQ ID NO:288],recognized by the rabbit serum,
NPFFAVSKPMGTQTH [SEQ ID NO:174],recognized by the rabbit serum,
KLQDVVNQNAQALNT [SEQ ID NO:957],recognized by the rabbit serum,"recognition by sera of SARS-CoV infected individuals, looped/cyclic form [2]: recognized in looped/cyclic form"
KPTKRSFIEDLLF [SEQ ID NO:1244],,recognition by sera of SARS-CoV infected individuals (domains homologous with OC43 spike) [2]: recognition by sera derived from individuals which have been and/or are still infected by SARS-CoV; recognition by control sera (domains homologous with OC43 spike) [3]: recognition by control sera derived from individuals which have not been infected by SARS-CoV
GYQPYRVVVLSFELL [SEQ ID NO:518],recognized by the rabbit serum,
DDVQAPNYTQHTSSM [SEQ ID NO:62],recognized by the rabbit serum,
FMLKYDENGTITDAV [SEQ ID NO:290],recognized by the rabbit serum,
VLYENQKQIANQFNKAISQIQ [SEQ ID NO:1245],,recognition by sera of SARS-CoV infected individuals (domains homologous with OC43 spike) [2]: recognition by sera derived from individuals which have been and/or are still infected by SARS-CoV; recognition by control sera (domains homologous with OC43 spike) [3]: recognition by control sera derived from individuals which have not been infected by SARS-CoV
TALGKLQDVVNQNAQ [SEQ ID NO:953],recognized by the rabbit serum,
LKYDENGTITDAVDC [SEQ ID NO:292],recognized by the rabbit serum,
DNPFFAVSKPMGTQT [SEQ ID NO:173],recognized by the rabbit serum,
IGYQPYRVVVLSFEL [SEQ ID NO:517],recognized by the rabbit serum,
TTSTALGKLQDVVNQ [SEQ ID NO:950],recognized by the rabbit serum,"recognition by sera of SARS-CoV infected individuals, looped/cyclic form [2]: recognized in looped/cyclic form"
FTDSVRDPKTSEILD [SEQ ID NO:586],recognized by the rabbit serum,
DRCTTFDDVQAPNYT [SEQ ID NO:56],recognized by the rabbit serum,

Sequence,recognition by rabbit serum [1],other results
TFDDVQAPNYTQHTS [SEQ ID NO:60],recognized by the rabbit serum,
SDFTDSVRDPKTSEI [SEQ ID NO:584],recognized by the rabbit serum,
QAPNYTQHTSSMRGV [SEQ ID NO:65],recognized by the rabbit serum,
RCTTFDDVQAPNYTQ [SEQ ID NO:57],recognized by the rabbit serum,
ALGKLQDVVNQNAQA [SEQ ID NO:954],recognized by the rabbit serum,"recognition by sera of SARS-CoV infected individuals, looped/cyclic form [2]: recognized in looped/cyclic form"
LDRCTTFDDVQAPNY [SEQ ID NO:55],recognized by the rabbit serum,
PTTFMLKYDENGTIT [SEQ ID NO:287],recognized by the rabbit serum,
TSTALGKLQDVVNQN [SEQ ID NO:951],recognized by the rabbit serum,
STALGKLQDVVNQNA [SEQ ID NO:952],recognized by the rabbit serum,
TFMLKYDENGTITDA [SEQ ID NO:289],recognized by the rabbit serum,
FDDVQAPNYTQHTSS [SEQ ID NO:61],recognized by the rabbit serum,
GKLQDVVNQNAQALN [SEQ ID NO:956],recognized by the rabbit serum,"recognition by sera of SARS-CoV infected individuals, looped/cyclic form [2]: recognized in looped/cyclic form"
MLKYDENGTITDAVD [SEQ ID NO:291],recognized by the rabbit serum,
TDSVRDPKTSEILDI [SEQ ID NO:587],recognized by the rabbit serum,
GIGYQPYRVVVLSFE [SEQ ID NO:516],recognized by the rabbit serum,
TTFDDVQAPNYTQHT [SEQ ID NO:59],recognized by the rabbit serum,
QHTSSMRGVYYPDEI [SEQ ID NO:71],,"recognition by sera of SARS-CoV infected individuals, looped/cyclic form [2]: recognized in looped/cyclic form"
NTVYDPLQPELDSFK [SEQ ID NO:1133],,"recognition by sera of SARS-CoV infected individuals, looped/cyclic form [2]: recognized in looped/cyclic form"
VAKNLNESLIDLQEL [SEQ ID NO:1185],,"recognition by sera of SARS-CoV infected individuals, looped/cyclic form [2]: recognized in looped/cyclic form"
TSSMRGVYYPDEIFR [SEQ ID NO:73],,"recognition by sera of SARS-CoV infected individuals, looped/cyclic form [2]: recognized in looped/cyclic form"
YFKNHTSPDVDLGDI [SEQ ID NO:1151],,"recognition by sera of SARS-CoV infected individuals, looped/cyclic form [2]: recognized in looped/cyclic form"
SNVPFSPDGKPCTPP [SEQ ID NO:484],,"recognition by sera of SARS-CoV infected individuals, linear form [2]: recognized in linear form"
VQAPNYTQHTSSMRG [SEQ ID NO:64],recognized by the rabbit serum,
